# Results taken from US9580465B2, “Tissue protective peptides and peptide analogs for preventing and treating diseases and disorders associated with tissue damage” (ARAIM PHARMACEUTICALS, INC., priority 2008, dated 2017).
# Entries after “also recorded” stand apart in the source; their conditions may differ. Square brackets hold non-standard residues; d marks the D form. pGlu = O=C1CC[C@@H](C(=O)O)N1
# Key:
# UT-7epo cells = experiment: UT-7epo proliferation/survival assay of erythropoietic potency; assay type: cell-based, human; conditions: 5 pM to 50 nM, 48 h incubation, WST-I reagent; FIG. 1
# Method: The cells were maintained in 75 cm^2 flasks with 20 ml of medium/flask in a humidified incubator with 5% CO2 at 37° C. for 48 h. On day two of the assay, i.e., at 48 h, the cells were transferred from the flask into a 50-ml conical tube and centrifuged at 1,000 rpm for 5 minutes at room temperature. The supernatant was discarded and the cells were washed two times with 10 ml of starvation media (3% donor calf serum, 4 mM L-glutamine). The cells were then re-suspended in starvation media, using up and down pipette action to obtain a single cell suspension. The re-suspended cells were diluted with starvation media to obtain a density of 4×10^5 cells/ml, and plated at a total culture volume of 10 ml per 25 cm^2 flask. Following a 4 h incubation, the cells were again transferred to a 50-ml conical tube.
# A series of 10 fold dilutions in RPMI 1640 medium containing 3% serum was used to generate concentrations of test compounds from 5 pM to 50 nM. Following a further for 48 h incubation, a solution of […] WST-I Cell Proliferation Reagent (Roche) was added to each well, and incubated for 1 hour at 37° C. in CO2. After mixing for 1 minute, the plate was read in a plate reader (absorption at 450 nm, subtracted from background absorption at 650 nm).
# [1] = Erythropoietic and hematopoietic effects, 28 days i.v. in rabbits; assay type: in vivo, New Zealand White rabbits; conditions: 30, 90, 300 μg/kg per dose i.v. twice daily for 28 days, baseline vs. day 29
# Method: Further the erythropoietic and hematopoietic affects of Peptide ID were evaluated in rabbits. Blood samples were taken of all rabbits prior to the initiation of the study to establish the hematological baseline for the animals. Peptide ID was administered twice daily i.v. to New Zealand White rabbits for 28 days. For this study, six males and females were assigned to groups 1 and 4, and four males and four females were assigned to groups 2 and 3. Group 1 received 0, group 2 received 30 μg (24 nmol/kg bw), group 3 received 90 μg/kg (72 nmol/kg bw); and group 4 received 300 μg/kg (240 nmol/kg bw) per dose Peptide ID in PBS by bolus i.v. administration. Blood samples to assay for hematological variables were collected on day 29.
# [2] = tested on: recall of previously experienced objects; experiment: Novel object recognition paradigm; assay type: in vivo, Wistar rats
# Method: A novel object recognition paradigm in rats was used to evaluate their recall of previously experienced objects. Specifically, adult Wistar rats were exposed to novel test objects and then reexposed to them 24 hours later. Animals were divided into 5 groups receiving either: (1) vehicle, (2) galantamine (3 mg/kg i.p.) 1 hr before testing as a positive control, (3) Peptide ID (24 nmol/kg bw i.p.) 3 hours after the first exposure to the novel objects, (4) Peptide ID (24 nmol/kg bw i.p.) twice daily for 5 days before training and continued through the day immediately after training, and (5) Peptide ID (24 nmol/kg bw i.p.) 1 hour before first exposure to the novel object.
# 9 L gliosarcoma cells = experiment: 9 L gliosarcoma implantation model, delayed treatment; assay type: in vivo, CD Fisher rats
# Method: In accordance with the accordance with the protocol of Lampson et al. Cancer Res. 53:176-82:1993 described above, CD Fisher rats were implanted with 9 L gliosarcoma cells transfected with the LacZ gene by use of a Hamilton syringe. 100,000 cells in 10 microliters were injected into the right caudate.
# ID with a short plasma half life, another receiving Peptide IW (pegylated form of Peptide IC) and the third group received saline. Peptides were given at a dose of 25 nmole/kg body weight. Three weeks later, the animals were sacrificed and serial 1 mm thick coronal sections cut through the brain and incubated with 5-bromo-4-chloro-3-indolyl-[beta]-D-galactopyranoside (Xgal). Tumor cells (containing the LacZ gene) metabolized Xgal into a dark blue stain, localizing the extent of tumor. High resolution digital images were obtained and the areas stained blue determined using planimetric methodology. Data is expressed as total area of tumor infiltration.
# histamine [3] = experiment: Histamine induced ear inflammation; assay type: in vivo, Sprague Dawley rats; conditions: 30 μg/kg IV; 15, 30, 45 and sixty minutes; versus saline; FIG. 15
# Method: The ability of peptides useful in the current therapeutic method to antagonize the pro-inflammatory affects of histamine were evaluated in a mouse model of histamine-induced edema disclosed in Brand et al. “Tea tree oil reduces histamine-induced oedema in murine ears,” Inflamm. Res. 51 (2002) 283-289. Briefly, 24 Sprague Dawley rats (male, 250 gm) were used in the study. Prior to the histamine challenge, each rat was anesthetized and the thickness of the rat's ear was measured using a spring loaded micrometer. 20 ul of 60 mg/ml solution of histamine diphosphate was injected intradermally into an ear of the rat and 30 seconds later the rat received either (1) 30 μg/kg Peptide ID IV (12 rats) or (2) Saline IV (12 rats). Then 20 ul of 60 mg/ml solution of histamine diphosphate was injected intradermally to the rat's other ear. The thickness of the rats ears was then measured using a caliper at 15, 30, 45 and sixty minutes following the histamine challenge.
# histamine [4] = experiment: Histamine induced wheal formation, persistence after single dose; assay type: in vivo, rats; conditions: FIG. 16
# Method: The ability of Peptide ID to reduce plasma extravasation (wheal) induced by intradermal histamine administration was evaluated in rats. Animals were pre-administered Evans Blue dye (which binds tightly to albumin) to provide a visual marker of vascular leak. To determine the persistence of peptide IG activity, at various time periods after Peptide ID administration (30 μg/kg, administered intravenously), an intradermal dose of 0.12 μg histamine was administered, and the extent of dye leak quantitated by planimetry performed on digital photographs obtained 15 minutes following histamine placement, a time at which wheal surface area is greatest. Each animal was tested at only a single time point to avoid influence of histamine administration on subsequent responses.
sequence,measurement,setting,value
"UEQLERALNSS ([pGlu]EQLERALNSS-OH; also: acetate/ammonium mixed salt) [Peptide ID, first glutamine replaced with pyroglutamate]",proliferation of UT-7 EPO cells (erythropoietic activity),UT-7epo cells,no erythropoeitic activity; also recorded: did not result in proliferation of the cells
same,hemoglobin concentration,[1]; FIG. 3A,no difference; also recorded: no effect
same,hematocrit,[1]; FIG. 3B,no difference; also recorded: no effect
same,platelet count,[1]; FIG. 3C,no difference; also recorded: no effect
same,recognition of the novel objects,"[2]; galantamine 3 mg/kg of bw, Peptide ID 24 nmol/kg of bw at various time points, FIG. 9",increased the rats recognition of the novel objects
same,recognition of the novel objects,[2]; group 3: 24 nmol/kg bw i.p. 3 hours after the first exposure to the novel objects,improved recognition of the novel objects
same,recognition of the novel objects,[2]; group 4: 24 nmol/kg bw i.p. twice daily for 5 days before training and through the day after training,improved recognition of the novel objects
same,tumor size (total area of tumor infiltration),"9 L gliosarcoma cells; 25 nmole/kg i.p. daily starting two weeks after implantation, three weeks, FIG. 13, 14","smaller than the saline group, it was not significantly different; also recorded: reduced the size of tumor"
same,tumor size,"9 L gliosarcoma cells; daily treatment begun immediately after implantation, FIG. 14",substantially smaller tumors; also recorded: reduction in size of the tumor
same,ear thickness (edema) after histamine challenge,histamine [3],reduced the amount of edema; also recorded: less inflammation
same,persistence of the suppressive effect on wheal formation,histamine [4]; following a single dose of 30 μg/kg intravenously,up to 24 hours
same,wheal formation (plasma extravasation),histamine [4]; single dose 30 μg/kg intravenously before 0.12 μg intradermal histamine,suppress wheal formation
